Test results published in US8613950B2, “Pharmaceutical forms with improved pharmacokinetic properties” (Bayer Intellectual Property GmbH, priority 2005, dated 2013).
Where a name gives a salt, the structure may show the parent alone.

Key:
[1] = Solubility of the vardenafil form employed in 10 ml of physiological saline at 25° C.; type: physicochemical
Text: Accordingly, the present invention provides a vardenafil-comprising drug formulation, which is characterized in that the solubility of the form of vardenafil employed in a small amount of aqueous liquid is sufficiently high and the dissolution rate of the formulation disintegrating in the mouth is sufficiently rapid.

[2] = cited from earlier work

amount of the active compound form that dissolves in 10 ml of physiological saline ([1]; 10 ml physiological saline, amount offered = tablet dose corresponding to 10 mg of vardenafil, hydrochloride trihydrate) | dissolved amount expressed as vardenafil ([1]; 10 ml physiological saline, dose 11.85 mg vardenafil hydrochloride trihydrate) | share of the active compound employed that dissolves in 10 ml of physiological saline ([1]; dose 5.93 mg vardenafil hydrochloride trihydrate (5 mg vardenafil)) | share of the dose of the active compound employed that dissolves in 10 ml of physiological saline ([1]; dose corresponding to 10 mg of vardenafil, hydrochloride trihydrate) | SMILES | bioavailability ([2]; known property of vardenafil, oral) | time after administration at which the rapid decrease in the plasma concentration occurs ([2]; oral administration of vardenafil)
about 10.4 mg | 8.8 mg | 91% | 88% | CCCc1nc(C)c2c(=O)[nH]c(-c3cc(S(=O)(=O)N4CCN(CC)CC4)ccc3OCC)nn12 [vardenafil hydrochloride trihydrate] |  | 
 |  |  |  | CCCc1nc(C)c2c(=O)[nH]c(-c3cc(S(=O)(=O)N4CCN(CC)CC4)ccc3OCC)nn12 [vardenafil] | about 14% | about 1 hour
